The results in this text go back to patent US10328051B2, “Proline or proline derivatives for the treatment of dementia” (priority 2014, dated 2019).

For this data set, the system named is patients suffering from cancer, chronic liver diseases (liver fibrosis) and mild Alzheimer's disease/dementia. The data set can be described thus: Phase II clinical studies (Example 12.1-12.4): safety, toxicity (CTC), Quality of Life, immune functions. It counts as in vivo, human. The text has this:
According to the example No. 12 in this invention, the safety, efficacy and Quality of Life (QoL) of CHP as monotherapy have been investigated in patients suffering from cancer, chronic liver diseases (liver fibrosis) and mild Alzheimer's disease/dementia The following four (4) ICH-GCP
Title: Phase II—CHP as antitumour agent in patients with resected colorectal cancer and liver metastasis; 60 patients—Study IPSS-A04 (Example 12.1).
Title: Phase II—CHP in patients with locally advanced or metastatic pancreatic cancer—14 patients Study IPSS B013 (Example 12.2).
Title: Evaluation of safety and efficacy of CHP in patients with urogenital Cancer—25 patients—Study IPSS-D002 (Example 12.3).
Title: Phase II—CHP in patients with chronic viral hepatitis, chronic alcohol liver diseases without cirrhosis or primary sclerosing cholangitis 45 patients—Study IPSS-B025 (Example 12.4).
According to the examples in this invention, the objectives of these studies were: • Assessment the efficacy and safety of CHP as monotherapy have been investigated in patients suffering from cancer, chronic liver diseases (liver fibrosis) and mild Alzheimer's disease/dementia.
The following validated evaluation systems have been used: • 1. Evaluation of Quality of Life as measured by the FACT questionnaires. • 2. Evaluation of the toxicity and safety of CHP treatment as measured by the Common Toxicity Criteria CTC. • Subjective assessments mild Alzheimer' patients: Overall physical conditions, Cognitive conditions, Quality of Life (QoL)
According to the study protocols for the performance of these studies, oral and intravenous CHP as monotherapy have been administered to the patients at high doses e.g. 8 gram/day for approximately 180 consecutive days. A number of patients have received the medication for approximately 18 months as mono therapy.

`O=C(O)[C@@H]1C[C@H](O)CN1` [CHP, cis-4-hydroxy-L-proline]: the Immunological activities result (Examples 12.1-12.4) is “increase of the immunological activities of interleukin-2, Interleukin-12, and Interferon-alpha”. Besides, under “Phase II clinical studies”, the “Patients' Quality of Life (QoL questionnaires)” value is given as “improved drastically”; the “Toxicity and safety as measured by the Common Toxicity Criteria CTC” value is “has not cause any nephrotoxicity, neurotoxicity, hepatotoxicity, cardiotoxicity and/or laboratory abnormalities”. The Side effects observed result (Phase II clinical studies, CHP monotherapy) is on record as “Only mild side effects such as nausea and/or vomiting”. The Tolerability entry (all clinical studies, mostly patients over 60 years, e.g. 8 gram/day for approximately 180 consecutive days, oral and intravenous monotherapy) is recorded as “excellent tolerability”. Under “mostly elderly patients”, the “Drug-drug interactions on co-administration with drugs used by the patients” value is given as “no drug-drug interactions have been observed”.
